Measurements from US20140348857A1, “METHODS OF DIAGNOSIS AND TREATMENT OF ENDOPLASMIC RETICULUM (ER) STRESS-RELATED CONDITIONS” (MASSACHUSETTS INSTITUTE OF TECHNOLOGY, priority 2011, published 2014).
Where a SMILES comes first, the peptide text is derived from it. The star is where a group is joined. Cbz = O=C(OCc1ccccc1)*

Key:
PERK = PERK and eIF2α phosphorylation immunoblot in HeLa cells; assay type: cell-based, human; conditions: control HeLa cells; Brefeldin A 5 μg/ml, Tunicamycin 3 μg/ml
Text: To determine the effects of (ADP-ribosyl)ation on PERK and IRE1α signaling, GFP-PARP-16, GFP-PARP-16^H152Q Y182A, or GFP alone were over-expressed at similar concentrations, and PERK and IRE1α activation examined using two standard assays; (i) detection of PERK phosphorylation at Thr 981 and phosphorylation of its substrate eIF2α at Ser 51 using phospho-specific antibodies, and (ii) monitoring splicing of the IRE1α substrate XBP-1 mRNA.
To determine if PARP-16 is required for PERK or IRE1α activation, we compared activation in PARP-16 knock-downs to controls. […] Since PERK and IRE1α activity result in the time-dependent activation of downstream transcriptional programs regulated by ATF4 and spliced XBP-1, respectively, we analyzed PERK and IRE1α signaling every 4 hours over a 12-hour period in PARP-16 knock-downs and controls treated with Tunicamycin. Components of each pathway were analyzed via immunoblot or RT-qPCR analysis. While IRE1α activation, detected by phosphorylation of IRE1α, occurred 4 hours post-treatment in controls, such phosphorylation was barely detectable in PARP-16 knock-downs at any time (FIG. 7C, left). […]
Immunofluorescence analysis was performed as described in Leung et al., Mol. Cell 42: 489-499, 2011. […] Fluorescence, biochemical protease protection assays and membrane extraction assays were performed as described in Schreiber et al., Nat. […]

ERAD machinery = experiment: ERAD activity assay, CD3δ-YFP clearance by cycloheximide chase; assay type: cell-based, human; conditions: MG132 10 μM
Text: While our data strongly point to direct effects of PARP-16 on PERK and IRE1α signaling, compromised ERAD (ER-associated degradation) and/or chaperone capacities of the ER in PARP-16 knock-downs could also affect UPR activation. ERAD activity in PARP-16 knock-downs was examined by measuring clearance of CD3δ-YFP, a model substrate of ERAD machinery. CD3δ-YFP degradation kinetics were similar in PARP-16 knock-downs and controls as assayed by cycloheximide chase. […] The protein-folding capacity of the ER in PARP-16 knock-downs appear to be similar to controls as the protein concentrations of ER chaperones BiP and Calnexin, and disulfide isomerases PDI and ERp57, were similar (FIG. 9C).
ROS was evaluated using a cell permeant […] derivative of fluorescein (CM-H2DCFDA, Invitrogen), following the manufacturer's protocol (Invitrogen). […] The fluorescence intensity of oxidized ROS probe was measured using a microplate reader (Tecan). […] The ratiometric fluorescence at 340 nm/380 nm was measured every 2 min for 20 min, using a microplate reader (Tecan). […] Total RNA was extracted using RNeasy kits and QIAshredder (Qiagen), and cDNA was amplified using Quantitect reverse transcription kit (Qiagen). RT-qPCR was performed with Quantitect SYBR Green PCR kit (Qiagen), using a LightCycler 480 (Roche). mRNA levels were normalized against GAPDH mRNA.

Row | Compound | phosphorylation of PERK and eIF2α (PERK) | CD3δ-YFP degradation (ERAD machinery)
1 | C[C@H]1CCC/C=C/[C@@H]2C[C@H](O)C[C@H]2[C@H](O)/C=C/C(=O)O1 [Brefeldin A] | robust phosphorylation of PERK and eIF2α | 
2 | CC(C)C[C@@H](C=O)NC(=O)[C@H](CC(C)C)NC(=O)[C@H](CC(C)C)NC(=O)OCc1ccccc1 [MG132] (Cbz-Leu-Leu-Leu-aldehyde) |  | rescued degradation
3 | Tunicamycin | robust phosphorylation of PERK and eIF2α | 
